Measured values reported in the kinase profiling compilation of Christmann-Franck et al. (2016).

Key:
Assay in all cases: radiometric filter-binding kinase assay, Kinase HotSpot
Settings in all cases: compound 0.5 µM; ATP 10 µM
[1] = biological target: ACVR1 (human) (UniProt Q04771)
[2] = biological target: ACVRL1 (human) (UniProt P37023)
[3] = biological target: BMX (human) (UniProt P51813)
[4] = biological target: BTK (human) (UniProt Q06187)
[5] = biological target: CAMKK1 (human) (UniProt Q8N5S9)
[6] = biological target: CDC42BPB (human) (UniProt Q9Y5S2)
[7] = biological target: CDK4 CCND3 (human) (UniProt P30281+P11802)
[8] = biological target: CLK1 (human) (UniProt P49759)
[9] = biological target: CSNK1E (human) (UniProt P49674)
[10] = biological target: DCLK2 (human) (UniProt Q8N568)
[11] = biological target: DDR2 (human) (UniProt Q16832)
[12] = biological target: DYRK1B (human) (UniProt Q9Y463)
[13] = biological target: EPHB4 (human) (UniProt P54760)
[14] = biological target: FES (human) (UniProt P07332)
[15] = biological target: FLT3 (human) (UniProt P36888)
[16] = biological target: GSG2 (human) (UniProt Q8TF76)
[17] = biological target: INSR (human) (UniProt P06213)
[18] = biological target: JAK3 JH1 JH2 (human) (UniProt P52333)
[19] = biological target: LCK (human) (UniProt P06239)
[20] = biological target: MAP3K14 (human) (UniProt Q99558)
[21] = biological target: MAPK13 (human) (UniProt O15264)
[22] = biological target: MKNK2 (human) (UniProt Q9HBH9)
[23] = biological target: MYLK2 (human) (UniProt Q9H1R3)
[24] = biological target: NEK11 (human) (UniProt Q8NG66)
[25] = biological target: NEK9 (human) (UniProt Q8TD19)
[26] = biological target: PAK2 (human) (UniProt Q13177)
[27] = biological target: PASK (human) (UniProt Q96RG2)
[28] = biological target: PHKG2 (human) (UniProt P15735)
[29] = biological target: PIM1 (human) (UniProt P11309)
[30] = biological target: PLK1 (human) (UniProt P53350)
[31] = biological target: PRKCA (human) (UniProt P17252)
[32] = biological target: PRKCE (human) (UniProt Q02156)
[33] = biological target: PRKCH (human) (UniProt P24723)
[34] = biological target: PRKCZ (human) (UniProt Q05513)
[35] = biological target: PTK6 (human) (UniProt Q13882)
[36] = biological target: RET (human) (UniProt P07949)
[37] = biological target: RPS6KA4 KD2 (human) (UniProt O75676)
[38] = biological target: RPS6KB2 (human) (UniProt Q9UBS0)
[39] = biological target: SRPK3 (human) (UniProt Q9UPE1)
[40] = biological target: STK17A (human) (UniProt Q9UEE5)
[41] = biological target: STK25 (human) (UniProt O00506)
[42] = biological target: ULK2 (human) (UniProt Q8IYT8)

Chain of JAK3 JH1 JH2 (human) (P52333 whole entry, looked up): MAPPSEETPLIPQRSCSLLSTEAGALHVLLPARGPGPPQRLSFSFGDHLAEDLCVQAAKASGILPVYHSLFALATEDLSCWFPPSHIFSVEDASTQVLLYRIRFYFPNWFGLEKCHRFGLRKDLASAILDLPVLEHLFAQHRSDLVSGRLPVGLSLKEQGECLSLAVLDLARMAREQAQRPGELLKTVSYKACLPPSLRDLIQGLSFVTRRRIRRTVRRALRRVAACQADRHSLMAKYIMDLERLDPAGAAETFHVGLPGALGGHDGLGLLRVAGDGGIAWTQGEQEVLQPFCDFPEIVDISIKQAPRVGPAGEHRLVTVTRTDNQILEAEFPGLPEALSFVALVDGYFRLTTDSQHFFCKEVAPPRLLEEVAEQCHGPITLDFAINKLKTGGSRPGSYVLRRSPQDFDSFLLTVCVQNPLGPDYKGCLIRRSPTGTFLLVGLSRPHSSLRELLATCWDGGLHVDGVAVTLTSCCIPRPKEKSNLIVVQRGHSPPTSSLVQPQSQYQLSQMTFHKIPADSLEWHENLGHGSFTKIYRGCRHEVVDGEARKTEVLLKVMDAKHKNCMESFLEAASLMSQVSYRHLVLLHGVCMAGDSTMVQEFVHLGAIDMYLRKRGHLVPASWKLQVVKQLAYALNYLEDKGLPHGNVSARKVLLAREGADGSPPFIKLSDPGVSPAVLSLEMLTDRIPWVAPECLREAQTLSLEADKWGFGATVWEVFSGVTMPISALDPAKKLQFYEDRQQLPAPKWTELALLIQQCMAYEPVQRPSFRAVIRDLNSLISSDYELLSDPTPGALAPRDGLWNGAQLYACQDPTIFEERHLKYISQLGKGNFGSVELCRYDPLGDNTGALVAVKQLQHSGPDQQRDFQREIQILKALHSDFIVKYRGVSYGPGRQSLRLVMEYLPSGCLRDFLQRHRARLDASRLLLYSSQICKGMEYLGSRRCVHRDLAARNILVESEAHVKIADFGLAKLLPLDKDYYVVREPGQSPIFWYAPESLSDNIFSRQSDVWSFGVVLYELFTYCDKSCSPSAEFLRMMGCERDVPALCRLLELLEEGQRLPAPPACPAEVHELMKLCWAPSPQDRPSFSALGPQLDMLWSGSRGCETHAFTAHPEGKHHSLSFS
Chain of NEK11 (human) (Q8NG66 whole entry, looked up): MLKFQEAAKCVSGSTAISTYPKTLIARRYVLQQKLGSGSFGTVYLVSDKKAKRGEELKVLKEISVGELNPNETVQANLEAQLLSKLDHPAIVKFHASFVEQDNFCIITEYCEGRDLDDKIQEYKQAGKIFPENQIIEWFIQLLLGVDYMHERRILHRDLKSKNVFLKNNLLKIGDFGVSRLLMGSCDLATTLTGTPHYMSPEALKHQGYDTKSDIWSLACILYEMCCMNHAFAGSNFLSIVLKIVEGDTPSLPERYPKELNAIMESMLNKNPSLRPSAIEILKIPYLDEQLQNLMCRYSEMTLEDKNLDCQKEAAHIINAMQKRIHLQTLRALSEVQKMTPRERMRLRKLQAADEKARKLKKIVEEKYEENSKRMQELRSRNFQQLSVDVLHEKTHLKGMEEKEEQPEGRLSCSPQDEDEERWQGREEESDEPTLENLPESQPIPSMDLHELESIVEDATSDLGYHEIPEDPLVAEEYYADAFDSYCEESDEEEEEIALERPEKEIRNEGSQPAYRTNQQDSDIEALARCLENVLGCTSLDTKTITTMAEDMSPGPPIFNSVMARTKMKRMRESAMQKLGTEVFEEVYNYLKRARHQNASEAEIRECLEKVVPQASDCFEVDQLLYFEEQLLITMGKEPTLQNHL
Chain of PRKCH (human) (P24723 whole entry, looked up): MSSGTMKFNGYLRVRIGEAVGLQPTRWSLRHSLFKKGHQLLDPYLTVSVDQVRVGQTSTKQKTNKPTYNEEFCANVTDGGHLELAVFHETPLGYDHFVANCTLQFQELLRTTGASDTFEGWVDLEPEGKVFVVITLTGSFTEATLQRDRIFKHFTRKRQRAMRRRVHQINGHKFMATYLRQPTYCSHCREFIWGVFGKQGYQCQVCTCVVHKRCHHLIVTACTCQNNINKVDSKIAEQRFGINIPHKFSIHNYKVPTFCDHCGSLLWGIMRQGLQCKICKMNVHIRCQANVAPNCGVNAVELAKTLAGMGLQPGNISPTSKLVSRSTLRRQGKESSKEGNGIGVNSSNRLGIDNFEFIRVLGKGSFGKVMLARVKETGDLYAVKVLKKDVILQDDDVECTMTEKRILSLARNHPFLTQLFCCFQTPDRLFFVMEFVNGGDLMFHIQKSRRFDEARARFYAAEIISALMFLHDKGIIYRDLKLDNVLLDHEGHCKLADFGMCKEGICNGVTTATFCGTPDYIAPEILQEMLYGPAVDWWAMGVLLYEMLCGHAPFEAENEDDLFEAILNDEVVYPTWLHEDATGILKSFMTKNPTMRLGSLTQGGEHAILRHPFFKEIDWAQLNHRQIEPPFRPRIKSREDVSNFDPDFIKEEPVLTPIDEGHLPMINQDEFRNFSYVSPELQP
Chain of RPS6KA4 KD2 (human) (O75676 whole entry, looked up): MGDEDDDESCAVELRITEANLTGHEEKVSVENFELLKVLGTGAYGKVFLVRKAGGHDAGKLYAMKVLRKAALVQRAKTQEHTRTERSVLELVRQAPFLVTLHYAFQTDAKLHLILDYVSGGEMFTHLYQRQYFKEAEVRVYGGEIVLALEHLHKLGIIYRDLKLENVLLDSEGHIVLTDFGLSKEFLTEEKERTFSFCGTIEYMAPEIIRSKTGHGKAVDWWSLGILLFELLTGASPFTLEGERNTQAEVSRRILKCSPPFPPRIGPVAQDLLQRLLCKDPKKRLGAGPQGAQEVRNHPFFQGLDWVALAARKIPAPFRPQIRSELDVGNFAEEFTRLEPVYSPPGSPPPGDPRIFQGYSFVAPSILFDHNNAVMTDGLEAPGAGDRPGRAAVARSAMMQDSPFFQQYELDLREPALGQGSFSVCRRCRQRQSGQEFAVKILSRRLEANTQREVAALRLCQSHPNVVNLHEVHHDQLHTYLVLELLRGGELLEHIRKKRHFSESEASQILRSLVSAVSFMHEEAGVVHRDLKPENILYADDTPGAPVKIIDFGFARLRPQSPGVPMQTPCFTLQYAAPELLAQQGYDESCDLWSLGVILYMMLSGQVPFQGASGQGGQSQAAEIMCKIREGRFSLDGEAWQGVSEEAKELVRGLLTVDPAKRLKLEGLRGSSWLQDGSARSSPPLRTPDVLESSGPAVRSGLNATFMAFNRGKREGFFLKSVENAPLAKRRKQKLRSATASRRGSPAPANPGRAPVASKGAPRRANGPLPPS
Chain of BMX (human) (P51813 whole entry, looked up): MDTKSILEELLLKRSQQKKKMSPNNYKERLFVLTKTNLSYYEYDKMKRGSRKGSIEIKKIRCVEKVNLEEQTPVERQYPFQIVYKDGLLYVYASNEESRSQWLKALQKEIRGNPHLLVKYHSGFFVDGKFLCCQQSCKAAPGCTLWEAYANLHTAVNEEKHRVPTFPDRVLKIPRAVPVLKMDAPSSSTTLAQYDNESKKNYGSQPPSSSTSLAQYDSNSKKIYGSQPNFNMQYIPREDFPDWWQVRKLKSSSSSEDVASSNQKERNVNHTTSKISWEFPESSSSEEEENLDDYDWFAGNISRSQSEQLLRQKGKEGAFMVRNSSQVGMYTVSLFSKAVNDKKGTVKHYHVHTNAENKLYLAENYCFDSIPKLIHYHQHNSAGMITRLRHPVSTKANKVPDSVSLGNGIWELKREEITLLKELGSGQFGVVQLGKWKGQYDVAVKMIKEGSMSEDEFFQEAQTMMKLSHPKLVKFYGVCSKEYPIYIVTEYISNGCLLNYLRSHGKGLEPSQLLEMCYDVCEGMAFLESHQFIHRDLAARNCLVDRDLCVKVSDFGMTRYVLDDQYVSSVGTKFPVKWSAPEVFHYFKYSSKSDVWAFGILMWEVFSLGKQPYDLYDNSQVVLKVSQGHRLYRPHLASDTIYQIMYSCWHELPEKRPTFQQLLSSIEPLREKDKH
Chain of STK25 (human) (O00506 whole entry, looked up): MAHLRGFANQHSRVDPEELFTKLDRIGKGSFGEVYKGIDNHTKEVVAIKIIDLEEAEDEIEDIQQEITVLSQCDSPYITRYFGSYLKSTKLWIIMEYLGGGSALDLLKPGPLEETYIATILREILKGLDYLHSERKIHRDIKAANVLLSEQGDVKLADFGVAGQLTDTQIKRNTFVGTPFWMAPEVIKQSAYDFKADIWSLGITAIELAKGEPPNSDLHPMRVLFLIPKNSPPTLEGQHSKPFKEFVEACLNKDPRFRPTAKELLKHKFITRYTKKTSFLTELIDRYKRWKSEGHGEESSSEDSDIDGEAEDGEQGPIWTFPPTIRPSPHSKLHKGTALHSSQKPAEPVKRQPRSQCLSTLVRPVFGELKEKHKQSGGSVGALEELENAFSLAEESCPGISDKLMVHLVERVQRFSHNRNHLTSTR
Chain of CLK1 (human) (P49759 whole entry, looked up): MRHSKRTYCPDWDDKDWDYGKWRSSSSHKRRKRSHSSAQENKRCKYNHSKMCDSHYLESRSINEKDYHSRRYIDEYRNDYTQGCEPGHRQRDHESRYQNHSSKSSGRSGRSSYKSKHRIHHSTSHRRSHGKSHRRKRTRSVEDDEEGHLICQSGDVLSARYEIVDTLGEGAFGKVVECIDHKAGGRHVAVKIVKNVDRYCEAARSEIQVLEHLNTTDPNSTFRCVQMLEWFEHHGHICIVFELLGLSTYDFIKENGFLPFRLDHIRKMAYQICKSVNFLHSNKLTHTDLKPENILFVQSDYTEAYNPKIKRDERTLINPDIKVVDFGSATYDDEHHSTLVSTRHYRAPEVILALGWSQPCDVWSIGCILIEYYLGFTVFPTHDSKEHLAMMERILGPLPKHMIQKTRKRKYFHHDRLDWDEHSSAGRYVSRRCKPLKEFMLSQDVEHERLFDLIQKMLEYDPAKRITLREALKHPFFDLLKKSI

Compound `Nc1n[nH]c2nnc(-c3c(-c4ccccc4)nn4ccccc34)cc12` has a residual activity [1] of 107%, a residual activity [2] of 106% and a residual activity [3] of 84.4%. For the same compound, the residual activity [4] was 93.6%, the residual activity [5] was 125% and the residual activity [6] was 93.4%. For the same compound, the residual activity [7] was 100%, the residual activity [8] was 108% and the residual activity [9] was 80.9%. For the same compound, the residual activity [10] was 100%, the residual activity [11] was 101% and the residual activity [12] was 101%. The residual activity [13] was 98.5%, the residual activity [14] was 97.8% and the residual activity [15] was 63.5%. The residual activity [16] was 97.1%, the residual activity [17] was 78.3% and the residual activity [18] was 105%. The residual activity [19] was 95.1%, the residual activity [20] was 102% and the residual activity [21] was 101%. The residual activity [22] was 98.3%, the residual activity [23] was 101% and the residual activity [24] was 95.1%. The residual activity [25] was 93.4%, the residual activity [26] was 100% and the residual activity [27] was 99.8%. It also gave a residual activity [28] of 82.6%, a residual activity [29] of 100% and a residual activity [30] of 98.1%. The residual activity [31] was 87.2%, the residual activity [32] was 72.7% and the residual activity [33] was 77.2%. It also gave a residual activity [34] of 83.9%, a residual activity [35] of 90.8% and a residual activity [36] of 93.7%. The residual activity [37] was 94.7%, the residual activity [38] was 104% and the residual activity [39] was 88.9%. For the same compound, the residual activity [40] was 99.9%, the residual activity [41] was 84.2% and the residual activity [42] was 100%.

`CC(C)n1cnc2c(Nc3cccc(Cl)c3)nc(NCCO)nc21` was tested, and the residual activity [1] was 80.3%, the residual activity [2] was 103% and the residual activity [3] was 92.5%. The residual activity [4] was 86.3%, the residual activity [5] was 88.2% and the residual activity [6] was 109%. It also gave a residual activity [7] of 93.3%, a residual activity [8] of 77.9% and a residual activity [9] of 65.4%. For the same compound, the residual activity [10] was 97.8%, the residual activity [11] was 93.3% and the residual activity [12] was 78.8%. The residual activity [13] was 82%, the residual activity [14] was 66.2% and the residual activity [15] was 15.1%. It also gave a residual activity [16] of 94.7%, a residual activity [17] of 97.3% and a residual activity [18] of 24.7%. For the same compound, the residual activity [19] was 84.9%, the residual activity [20] was 97.4% and the residual activity [21] was 99%. It also gave a residual activity [22] of 94.8%, a residual activity [23] of 96.3% and a residual activity [24] of 109%. It also gave a residual activity [25] of 81.1%, a residual activity [26] of 106% and a residual activity [27] of 92.7%. The residual activity [28] was 93.2%, the residual activity [29] was 93.9% and the residual activity [30] was 44.1%. It also gave a residual activity [31] of 78.6%, a residual activity [32] of 93.6% and a residual activity [33] of 99.4%. The residual activity [34] was 97.8%, the residual activity [35] was 90.2% and the residual activity [36] was 82.9%. The residual activity [37] was 83.8%, the residual activity [38] was 97% and the residual activity [39] was 47.7%. For the same compound, the residual activity [40] was 96.8%, the residual activity [41] was 92.9% and the residual activity [42] was 89%.
